Measured values published in ChEMBL document CHEMBL5725619, “Substituted oxopyridine derivatives” (2018).

Experiment: Plasma Kallikrein Assay: Test substances are dissolved in dimethyl sulphoxide and serially diluted in dimethyl sulphoxide (3000 μM to 0.0078 μM; resulting final concentrations in the test: 50 μM to 0.00013 μM). 1 μl of the diluted substance solutions is placed into each of the wells of white microtitre plates from Greiner (384 wells). 20 μl of assay buffer (50 mM Tris/HCl pH 7.4; 100 mM sodium chloride solution; 5 mM of calcium chloride solution; 0.1% of bovine serum albumin) and 20 μl of plasma kallikrein from Kordia (0.6 nM in assay buffer) are then added successively. After 15 min of incubation, the enzyme reaction is started by addition of 20 μl of the substrate H-Pro-Phe-Arg-AMC dissolved in assay buffer (10 μM in assay buffer) from Bachem, the mixture is incubated at room temperature (22° C.) for 30 min and fluorescence is then measured (excitation: 360 nm, emission: 460 nm). The measured emissions of the test batches with test substance are compared to those of control batches without test substance (only dimethyl sulphoxide instead of test substance in dimethyl sulphoxide), and IC50 values are calculated from the concentration/activity relationships.

IC50: 100 nM
SMILES: COCCC(C(=O)Nc1cc(F)c(C(N)=O)s1)n1cc(OC)c(-c2cc(Cl)ccc2C#N)cc1=O (stereo unspecified)
